Results: PubChem BioAssay AID2060618 (Molecular Pharmacology Branch, DTP, NCI, 2025)

System: 454973-116-R2-J3-PDC spheroids, percent test/control viability
Experiment: Anticancer human tumor 454973-116-R2-J3-PDC patient-derived pancreatic carcinoma cell line growth inhibition [CLK]
Conditions: spheroids with HUVEC and MSC; for IC50: curve of first compound; for viability, T/C: stronger effect = lower value; active means viability on the fitted dose curve at most 10% of control; inactive means the rest
Procedure, shortened: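 Multi-cell-type spheroids combined patient-derived tumor cells with HUVEC endothelial cells and human mesenchymal stem cells. Paired agents were dosed in half-log steps down from about clinical Cmax, or from 10 microM where Cmax was unknown.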
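Further: spheroids exposed to compounds for 7 days before readout.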

CC1(C)CCC(CN2CCN(c3ccc(C(=O)NS(=O)(=O)c4ccc(NCC5CCOCC5)c([N+](=O)[O-])c4)c(Oc4cnc5[nH]ccc5c4)c3)CC2)=C(c2ccc(Cl)cc2)C1 + CN1CCN(c2cc(C(=O)Nc3cc4cc(-c5cnn(C)c5)ccc4cn3)ccn2)CC1
< 31.6 nM: IC50 (second compound 0.316 µM) | IC50 (second compound 1 µM) | IC50 (second compound 3.16 µM) | IC50 (second compound 10 µM)
5230 nM: IC50 (second compound 0.1 µM)
inactive: viability, T/C (second compound 0.0316 µM, first compound 0.0316 µM) 99.1% | viability, T/C (second compound 0.0316 µM, first compound 0.1 µM) 93.8% | viability, T/C (second compound 0.0316 µM, first compound 0.316 µM) 96.2% | viability, T/C (second compound 0.0316 µM, first compound 1 µM) 110% | viability, T/C (second compound 0.0316 µM, first compound 3.16 µM) 105% | viability, T/C (second compound 0.0316 µM, first compound 10 µM) 28.6% | viability, T/C (second compound 0.1 µM, first compound 0.0316 µM) 80% | viability, T/C (second compound 0.1 µM, first compound 0.1 µM) 74.3% | viability, T/C (second compound 0.1 µM, first compound 0.316 µM) 69.3% | viability, T/C (second compound 0.1 µM, first compound 1 µM) 84% | viability, T/C (second compound 0.1 µM, first compound 3.16 µM) 72.7% | viability, T/C (second compound 0.1 µM, first compound 10 µM) 20.2%
7120 nM: IC50 (second compound 0.0316 µM)
active: viability, T/C (second compound 0.316 µM, first compound 0.0316 µM) 1.7% | viability, T/C (second compound 0.316 µM, first compound 0.1 µM) 1.6% | viability, T/C (second compound 0.316 µM, first compound 0.316 µM) 2.41% | viability, T/C (second compound 0.316 µM, first compound 1 µM) 3.39% | viability, T/C (second compound 0.316 µM, first compound 3.16 µM) 0.47% | viability, T/C (second compound 0.316 µM, first compound 10 µM) 2.29% | viability, T/C (second compound 1 µM, first compound 0.0316 µM) 0.12% | viability, T/C (second compound 1 µM, first compound 0.1 µM) 0.14% | viability, T/C (second compound 1 µM, first compound 0.316 µM) 0.18% | viability, T/C (second compound 1 µM, first compound 1 µM) 0.14% | viability, T/C (second compound 1 µM, first compound 3.16 µM) 0.16% | viability, T/C (second compound 1 µM, first compound 10 µM) 0.4% | viability, T/C (second compound 3.16 µM, first compound 0.0316 µM) 0.18% | viability, T/C (second compound 3.16 µM, first compound 0.1 µM) 0.15% | viability, T/C (second compound 3.16 µM, first compound 0.316 µM) 0.18% | viability, T/C (second compound 3.16 µM, first compound 1 µM) 0.24% | viability, T/C (second compound 3.16 µM, first compound 3.16 µM) 0.61% | viability, T/C (second compound 3.16 µM, first compound 10 µM) 0.7% | viability, T/C (second compound 10 µM, first compound 0.0316 µM) 0.14% | viability, T/C (second compound 10 µM, first compound 0.1 µM) 0.13% | viability, T/C (second compound 10 µM, first compound 0.316 µM) 0.21% | viability, T/C (second compound 10 µM, first compound 1 µM) 0.2% | viability, T/C (second compound 10 µM, first compound 3.16 µM) 0.15% | viability, T/C (second compound 10 µM, first compound 10 µM) 0.17%

NC(=O)C(=Cn1cnc(-c2cc(C(F)(F)F)cc(C(F)(F)F)c2)n1)c1cncnc1 + CN1CCN(c2cc(C(=O)Nc3cc4cc(-c5cnn(C)c5)ccc4cn3)ccn2)CC1
inactive: viability, T/C (second compound 0.0316 µM, first compound 0.00949 µM) 93.1% | viability, T/C (second compound 0.0316 µM, first compound 0.03 µM) 96.2% | viability, T/C (second compound 0.0316 µM, first compound 0.0949 µM) 70.5% | viability, T/C (second compound 0.0316 µM, first compound 0.3 µM) 65.9% | viability, T/C (second compound 0.0316 µM, first compound 0.949 µM) 36.9% | viability, T/C (second compound 0.1 µM, first compound 0.00949 µM) 81.8% | viability, T/C (second compound 0.1 µM, first compound 0.03 µM) 65.2% | viability, T/C (second compound 0.1 µM, first compound 0.0949 µM) 62.8% | viability, T/C (second compound 0.1 µM, first compound 0.3 µM) 41% | viability, T/C (second compound 0.1 µM, first compound 0.949 µM) 20.2%
530 nM: IC50 (second compound 0.0316 µM)
< 9.49 nM: IC50 (second compound 0.316 µM) | IC50 (second compound 1 µM) | IC50 (second compound 3.16 µM) | IC50 (second compound 10 µM)
active: viability, T/C (second compound 0.0316 µM, first compound 3 µM) 9.03% | viability, T/C (second compound 0.1 µM, first compound 3 µM) 2% | viability, T/C (second compound 0.316 µM, first compound 0.00949 µM) 0.71% | viability, T/C (second compound 0.316 µM, first compound 0.03 µM) 0.67% | viability, T/C (second compound 0.316 µM, first compound 0.0949 µM) 0.65% | viability, T/C (second compound 0.316 µM, first compound 0.3 µM) 0.1% | viability, T/C (second compound 0.316 µM, first compound 0.949 µM) 0.08% | viability, T/C (second compound 0.316 µM, first compound 3 µM) 0.11% | viability, T/C (second compound 1 µM, first compound 0.00949 µM) 0.11% | viability, T/C (second compound 1 µM, first compound 0.03 µM) 0.15% | viability, T/C (second compound 1 µM, first compound 0.0949 µM) 1.14% | viability, T/C (second compound 1 µM, first compound 0.3 µM) 0.08% | viability, T/C (second compound 1 µM, first compound 0.949 µM) 0.08% | viability, T/C (second compound 1 µM, first compound 3 µM) 0.06% | viability, T/C (second compound 3.16 µM, first compound 0.00949 µM) 0.08% | viability, T/C (second compound 3.16 µM, first compound 0.03 µM) 0.28% | viability, T/C (second compound 3.16 µM, first compound 0.0949 µM) 0.13% | viability, T/C (second compound 3.16 µM, first compound 0.3 µM) 0.13% | viability, T/C (second compound 3.16 µM, first compound 0.949 µM) 0.1% | viability, T/C (second compound 3.16 µM, first compound 3 µM) 0.72% | viability, T/C (second compound 10 µM, first compound 0.00949 µM) 1.5% | viability, T/C (second compound 10 µM, first compound 0.03 µM) 0.12% | viability, T/C (second compound 10 µM, first compound 0.0949 µM) 0.2% | viability, T/C (second compound 10 µM, first compound 0.3 µM) 0.2% | viability, T/C (second compound 10 µM, first compound 0.949 µM) 0.22% | viability, T/C (second compound 10 µM, first compound 3 µM) 0.23%
167 nM: IC50 (second compound 0.1 µM)
